The source of these data is PubChem BioAssay AID330 (DTP/NCI, 2004).

The subject of the assay is P388 leukemia ip, CD2F1 mice, survival T/C. Put plainly: NCI In Vivo Anticancer Drug Screen. Data for tumor model P388 Leukemia (intraperitoneal) in CD2F1 (CDF1) mice. The conditions noted are these: endpoint: median survival time, higher = longer survival. The procedure, abridged: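 Mice carrying the transplanted tumor received test compound or vehicle. Survival was recorded in each group, and the value is the treated-group measurement divided by that of the vehicle-treated control group.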

Setting [1] is: dose: 50.0 mg/kg/injection, schedule: Q01DX005 (ip), vehicle: saline with Tween-80.
Where [2] appears, read: dose: 100.0 mg/kg/injection, schedule: Q01DX005 (ip), vehicle: saline with Tween-80.
The mark [3] stands for this setting: dose: 200.0 mg/kg/injection, schedule: Q01DX005 (ip), vehicle: saline with Tween-80.
Where [4] appears, read: dose: 60.0 mg/kg/injection, schedule: Q01DX005 (ip), vehicle: saline with Tween-80.
Setting [5] is: dose: 120.0 mg/kg/injection, schedule: Q01DX005 (ip), vehicle: saline with Tween-80.
The mark [6] stands for this setting: dose: 240.0 mg/kg/injection, schedule: Q01DX005 (ip), vehicle: saline with Tween-80.
[7] abbreviates: dose: 6.25 mg/kg/injection, schedule: Q01DX009 (ip), vehicle: water.
Setting [8] is: dose: 12.5 mg/kg/injection, schedule: Q01DX009 (ip), vehicle: water.
Setting [9] is: dose: 25.0 mg/kg/injection, schedule: Q01DX009 (ip), vehicle: water.
[10] abbreviates: dose: 100.0 mg/kg/injection, schedule: Q04DX003 (ip), vehicle: saline.
[11] abbreviates: dose: 200.0 mg/kg/injection, schedule: Q04DX003 (ip), vehicle: saline.

Each structure is given as a SMILES string. “And” between values parts separate entries of the source, which are not always exact repeats. Identical values can stand only once. Inconclusive results and toxic doses are left out.

For the compound `Nc1ncnc2c1ncn2C1OC(COC(c2ccccc2)(c2ccccc2)c2ccccc2)C(O)C1O` (stereo unspecified), the T/C by setting is: under setting [1], 100 % of control; under setting [2], 95 % of control; under setting [3], 90 % of control.

Regarding `CC(=N/NC(=S)NCCN1CCCC1)/C(C)=N\NC(=S)NCCN1CCCC1`, the T/C was 117 % of control (dose: 6.25 mg/kg/injection, schedule: Q04DX003 (ip), vehicle: saline with Tween-80); 98 % of control (dose: 12.5 mg/kg/injection, schedule: Q04DX003 (ip), vehicle: saline with Tween-80); 100 % of control (dose: 25.0 mg/kg/injection, schedule: Q04DX003 (ip), vehicle: saline with Tween-80).

On to `Oc1c(-c2ccccc2)nc2cnccn12`, for which the T/C under setting [4] is 100 % of control, the T/C under setting [5] was 107 % of control and the T/C under setting [6] was 107 % of control.

On to `C=CCN(CC=C)C(N)=Nc1ccccc1Cl`, for which the T/C was 103 % of control (dose: 6.25 mg/kg/injection, schedule: Q01DX005 (ip), vehicle: saline); 103 % of control (dose: 12.5 mg/kg/injection, schedule: Q01DX005 (ip), vehicle: saline); 103 % of control (dose: 25.0 mg/kg/injection, schedule: Q01DX005 (ip), vehicle: saline).

In the case of `O=S(=O)(c1ccccc1)N1CC2(CN(S(=O)(=O)c3ccccc3)c3ccccc31)CN(S(=O)(=O)c1ccccc1)c1ccccc1N(S(=O)(=O)c1ccccc1)C2`, the T/C reads like this: (dose: 100.0 mg/kg/injection, schedule: Q01DX001 (ip), vehicle: saline with Tween-80) 90 % of control; (dose: 200.0 mg/kg/injection, schedule: Q01DX001 (ip), vehicle: saline with Tween-80) 87 % of control; (dose: 400.0 mg/kg/injection, schedule: Q01DX001 (ip), vehicle: saline with Tween-80) 88 % of control.

For `COC1(OC)C(c2ccccc2)C(C#N)(S(=O)(=O)c2ccccc2)C1(OC)OC` (stereo unspecified), the T/C runs as follows: (dose: 60.0 mg/kg/injection, schedule: Q01DX005 (ip), vehicle: Klucel (hydroxypropylcellulose) (HPC)) 100 % of control; (dose: 120.0 mg/kg/injection, schedule: Q01DX005 (ip), vehicle: Klucel (hydroxypropylcellulose) (HPC)) 98 % of control; (dose: 240.0 mg/kg/injection, schedule: Q01DX005 (ip), vehicle: Klucel (hydroxypropylcellulose) (HPC)) 100 % of control.

In the case of `O=NNc1ccc([N+](=O)[O-])cn1`, the T/C by setting is: (dose: 3.12 mg/kg/injection, schedule: Q01DX009 (ip), vehicle: water) 107 % of control; (dose: 6.25 mg/kg/injection, schedule: Q01DX009 (ip), vehicle: saline) 106 % of control and 96 % of control; under setting [7], 96 % of control; (dose: 12.5 mg/kg/injection, schedule: Q01DX009 (ip), vehicle: saline) 122 % of control and 123 % of control; under setting [8], 102 % of control; under setting [9], 105 % of control and 88 % of control. For the same compound, the T/C (dose: 50.0 mg/kg/injection, schedule: Q01DX009 (ip), vehicle: saline) is 176 % of control.

With `COc1ccc(C2(C)C(C#N)(C#N)C2(C#N)C#N)cc1`, the T/C is, setting by setting: (dose: 18.75 mg/kg/injection, schedule: Q01DX009 (ip), vehicle: saline) 103 % of control; (dose: 37.5 mg/kg/injection, schedule: Q01DX009 (ip), vehicle: saline) 100 % of control; (dose: 75.0 mg/kg/injection, schedule: Q01DX009 (ip), vehicle: saline) 116 % of control; (dose: 150.0 mg/kg/injection, schedule: Q01DX009 (ip), vehicle: saline) 111 % of control.

`O=CC(CO)CC(C=O)n1cnc2c(=O)[nH]cnc21` (stereo unspecified): the T/C was 155 % of control and 158 % of control (dose: 150.0 mg/kg/injection, schedule: Q01DX005 (ip), vehicle: saline); 165 % of control and 174 % of control (dose: 300.0 mg/kg/injection, schedule: Q01DX005 (ip), vehicle: saline).

Turning to `O=C1c2ccccc2C(=O)N1C[P+](c1ccccc1)(c1ccccc1)c1ccccc1`, the T/C by setting is: (dose: 0.78 mg/kg/injection, schedule: Q01DX009 (ip), vehicle: water) 102 % of control; (dose: 1.56 mg/kg/injection, schedule: Q01DX009 (ip), vehicle: water) 106 % of control; (dose: 3.13 mg/kg/injection, schedule: Q01DX009 (ip), vehicle: water) 106 % of control; (dose: 5.56 mg/kg/injection, schedule: Q01DX009 (ip), vehicle: water) 123 % of control; under setting [9], 98 % of control.

For `COc1cc2cnccc2cc1O`, the T/C under setting [7] was 92 % of control; the T/C under setting [8] is 103 % of control; the T/C under setting [9] was 98 % of control; the T/C (dose: 50.0 mg/kg/injection, schedule: Q01DX009 (ip), vehicle: water) is 95 % of control; the T/C (dose: 100.0 mg/kg/injection, schedule: Q01DX009 (ip), vehicle: water) was 110 % of control.

Consider `CCOC(=O)CCCCCCN(/C=C(\C)CN1c2c(nc(N)[nH]c2=O)NCC1CNc1ccc(C(=O)NC(CCC(=O)O)C(=O)O)cc1)C(C)=O` (stereo unspecified), for which the T/C by setting is: (dose: 50.0 mg/kg/injection, schedule: Q04DX003 (ip), vehicle: saline) 97 % of control; under setting [10], 99 % of control; under setting [11], 98 % of control.

As for `CN(C)Nc1ncnc2c1ncn2C`, the T/C reads like this: under setting [1], 103 % of control; under setting [2], 100 % of control; under setting [3], 97 % of control.

As for `CC(C)=CN=Cc1nc(Cc2ccccc2)oc1O`, the T/C under setting [4] is 105 % of control, the T/C under setting [5] was 96 % of control and the T/C under setting [6] is 94 % of control.

Turning to `C/C(C/C(C)=N/C(N)=S)=N\C(N)=S`, the T/C reads like this: (dose: 60.0 mg/kg/injection, schedule: Q01DX005 (ip), vehicle: saline) 100 % of control; (dose: 120.0 mg/kg/injection, schedule: Q01DX005 (ip), vehicle: saline) 95 % of control; (dose: 240.0 mg/kg/injection, schedule: Q01DX005 (ip), vehicle: saline) 100 % of control.

Take `COC(=O)CCSC(=O)NC1CCCCC1`: the T/C (dose: 50.0 mg/kg/injection, schedule: Q01DX005 (ip), vehicle: Klucel (hydroxypropylcellulose) (HPC)) was 102 % of control; the T/C (dose: 100.0 mg/kg/injection, schedule: Q01DX005 (ip), vehicle: Klucel (hydroxypropylcellulose) (HPC)) was 107 % of control; the T/C (dose: 200.0 mg/kg/injection, schedule: Q01DX005 (ip), vehicle: Klucel (hydroxypropylcellulose) (HPC)) was 102 % of control.

For `O=C(Cc1ccccc1)N1CCc2cc3c(cc2C1Cc1cc2c(cc1Br)OCO2)OCO3` (stereo unspecified), the T/C is 98 % of control (dose: 12.5 mg/kg/injection, schedule: Q01DX001 (ip), vehicle: saline + alcohol); 99 % of control (dose: 25.0 mg/kg/injection, schedule: Q01DX001 (ip), vehicle: saline + alcohol); 100 % of control (dose: 50.0 mg/kg/injection, schedule: Q01DX001 (ip), vehicle: saline + alcohol).

For `CCCC(O)C(C)[N+](=O)[O-]` (stereo unspecified), the T/C was 100 % of control under setting [10] and 95 % of control under setting [11].

For `COC(=O)c1ccc(CSc2ccccc2NC(=S)Nc2cccc(C(F)(F)F)c2)o1`, the T/C (dose: 6.25 mg/kg/injection, schedule: Q01DX005 (ip), vehicle: saline with Tween-80) was 104 % of control; the T/C (dose: 12.5 mg/kg/injection, schedule: Q01DX005 (ip), vehicle: saline with Tween-80) was 100 % of control; the T/C (dose: 25.0 mg/kg/injection, schedule: Q01DX005 (ip), vehicle: saline with Tween-80) is 98 % of control.

With `O=C1NC2(CCCCC2)C(=O)N1CCCCCN(CCCl)CCCl`, the T/C runs as follows: (dose: 1.5 mg/kg/injection, schedule: Q01DX005 (ip), vehicle: saline) 111 % of control; (dose: 3.0 mg/kg/injection, schedule: Q01DX005 (ip), vehicle: saline) 119 % of control; (dose: 40.0 mg/kg/injection, schedule: Q01DX005 (ip), vehicle: saline) 160 % of control.

Take `Nc1nc(N)c2nc(CCc3ccc(C(=O)NC(CCC(=O)O)C(=O)O)cc3)cnc2n1` (stereo unspecified): the T/C (dose: 1.5 mg/kg/injection, schedule: Q01DX009 (ip), vehicle: sodium bicarbonate) is 171 % of control; the T/C (dose: 1.75 mg/kg/injection, schedule: Q01DX009 (ip), vehicle: sodium bicarbonate) is 204 % of control; the T/C (dose: 2.0 mg/kg/injection, schedule: Q01DX009 (ip), vehicle: sodium bicarbonate) was 214 % of control.

As for `CC(=O)OC(C)C(C)[N+](C)(C)C` (stereo unspecified), under “dose: 100.0 mg/kg/injection, schedule: Q04DX002 (ip), vehicle: saline”, the T/C was 94 % of control.
